What all share (type): biochemical
One assay deals with T1, human Lck enzyme (Homo sapiens, UniProt P06239).
T1 construct: purchased Carna Biosciences, Inc. 08-170
In words: Lck enzyme inhibitory activity (time-resolved fluorometry, biotinylated peptide phosphorylation). As to conditions: read-out: LCK_IC50. The method in brief: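 Readout pairs a europium cryptate-labelled anti-phosphotyrosine antibody with XL665-streptavidin, measured by time-resolved fluorescence. IC50 derived from percent inhibition against untreated controls.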

The target of a further assay is T2, human Src enzyme (Homo sapiens, UniProt P12931).
T2 construct: purchased Carna Biosciences, Inc. 08-173
T2 sequence (P12931 whole entry): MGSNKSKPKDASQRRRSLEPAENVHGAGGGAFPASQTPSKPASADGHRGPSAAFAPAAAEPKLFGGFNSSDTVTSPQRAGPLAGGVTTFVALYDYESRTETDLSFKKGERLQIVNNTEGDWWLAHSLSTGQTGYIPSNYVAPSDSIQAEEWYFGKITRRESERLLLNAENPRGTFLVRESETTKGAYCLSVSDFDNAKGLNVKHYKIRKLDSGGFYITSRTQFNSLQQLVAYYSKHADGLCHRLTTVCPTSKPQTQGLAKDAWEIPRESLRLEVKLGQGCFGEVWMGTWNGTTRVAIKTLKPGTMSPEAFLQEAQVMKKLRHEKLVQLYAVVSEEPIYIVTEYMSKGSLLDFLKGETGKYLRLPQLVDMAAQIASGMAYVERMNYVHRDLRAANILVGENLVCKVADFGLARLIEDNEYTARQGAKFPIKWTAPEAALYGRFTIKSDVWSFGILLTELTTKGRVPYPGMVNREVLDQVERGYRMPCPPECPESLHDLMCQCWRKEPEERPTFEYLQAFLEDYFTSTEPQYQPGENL
Nature of the assay: Src enzyme inhibitory activity (time-resolved fluorometry, biotinylated peptide phosphorylation). As to conditions: read-out: SRC_IC50. The method in brief: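 Compounds were tested for blocking tyrosine phosphorylation of a biotinylated peptide substrate by recombinant human Src. Phosphorylated product was quantified by time-resolved fluorometry using europium cryptate and XL665 conjugates, and IC50 was calculated against the compound-free control.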

The target of the next assay is T3, human Yes1 enzyme (Homo sapiens, UniProt P07947).
T3 construct: made in house
T3 sequence (P07947 whole entry): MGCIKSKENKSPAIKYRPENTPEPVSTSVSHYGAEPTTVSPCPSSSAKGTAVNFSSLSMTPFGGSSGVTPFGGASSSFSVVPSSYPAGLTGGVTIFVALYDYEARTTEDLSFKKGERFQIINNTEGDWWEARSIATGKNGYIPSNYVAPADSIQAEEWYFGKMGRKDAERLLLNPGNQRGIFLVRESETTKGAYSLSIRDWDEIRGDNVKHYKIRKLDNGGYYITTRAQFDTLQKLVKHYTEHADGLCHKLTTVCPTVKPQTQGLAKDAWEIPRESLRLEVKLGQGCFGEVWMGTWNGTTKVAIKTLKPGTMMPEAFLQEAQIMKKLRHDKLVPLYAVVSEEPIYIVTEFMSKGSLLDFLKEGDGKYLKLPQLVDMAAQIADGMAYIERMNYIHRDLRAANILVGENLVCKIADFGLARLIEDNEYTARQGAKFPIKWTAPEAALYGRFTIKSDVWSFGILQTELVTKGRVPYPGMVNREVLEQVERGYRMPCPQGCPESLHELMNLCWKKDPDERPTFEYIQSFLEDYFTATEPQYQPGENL
In words: Yes1 enzyme inhibitory activity (time-resolved fluorometry, biotinylated peptide phosphorylation). As to conditions: read-out: YES_IC50. The method in brief:
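Inhibition was expressed against a compound-free control to give IC50, using TR-FRET read-out (Eu-cryptate anti-pTyr antibody, streptavidin-XL665).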

[1] abbreviates: biotinylated peptide phosphorylation.

Read-outs that look alike come from different tables or passages of the source.

T1 sequence (P06239 whole entry): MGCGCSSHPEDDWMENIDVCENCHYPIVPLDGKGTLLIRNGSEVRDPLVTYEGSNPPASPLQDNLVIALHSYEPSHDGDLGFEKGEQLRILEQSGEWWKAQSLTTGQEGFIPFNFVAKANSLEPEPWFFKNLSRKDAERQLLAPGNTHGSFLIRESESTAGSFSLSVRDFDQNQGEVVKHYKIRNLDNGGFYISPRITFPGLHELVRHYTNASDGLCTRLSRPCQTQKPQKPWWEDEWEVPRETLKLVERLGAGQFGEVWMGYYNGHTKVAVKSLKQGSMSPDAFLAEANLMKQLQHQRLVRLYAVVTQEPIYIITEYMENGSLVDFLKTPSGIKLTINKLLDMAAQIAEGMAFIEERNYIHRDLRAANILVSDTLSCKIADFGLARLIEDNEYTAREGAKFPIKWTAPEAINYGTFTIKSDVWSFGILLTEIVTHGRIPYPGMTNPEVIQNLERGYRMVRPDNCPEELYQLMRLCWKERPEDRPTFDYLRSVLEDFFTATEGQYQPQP

For the compound `COc1ccccc1S(=O)(=O)Nc1cc2[nH]c(C(=O)c3cnn(-c4cnc(Oc5c(F)cccc5F)cc4C)c3N)cc2cc1OCC(F)F` [Example 5-1-329, N-[2-[5-amino-1-[6-(2,6-difluorophenoxy)-4-methylpyridin-3-yl]pyrazole-4-carbonyl]-5-(2,2-difluoroethoxy)-1H-indol-6-yl]-2-methoxybenzenesulfonamide], the IC50 worked out at 150 nM on human Lck enzyme, 720 nM at human Src enzyme and 9 nM on human Yes1 enzyme.
The corresponding values for `Cc1cc(Oc2c(F)cccc2F)ncc1-n1ncc(C(=O)c2cc3cc(OCC(F)F)c(NS(=O)(=O)c4cc(F)cc(F)c4)cc3[nH]2)c1N` [Example 5-1-330, N-[2-[5-amino-1-[6-(2,6-difluorophenoxy)-4-methylpyridin-3-yl]pyrazole-4-carbonyl]-5-(2,2-drfluoroethoxy)-1H-indol-6-yl]-3,5-difluorobenzenesulfonamide] are 200 nM, 700 nM and 11 nM.
With `Cc1cc(-n2ncc(C(=O)c3cc4cc(OCC(F)F)c(NS(C)(=O)=O)cc4[nH]3)c2N)ccc1Oc1ccccc1F` [Example 5-1-166, N-[2-[5-amino-1-[4-(2-fluorophenoxy)-3-methylphenyl]pyrazole-4-carbonyl]-5-(2,2-difluoroethoxy)-1H-indol-6-yl] methanesulfonamide], the IC50 on human Lck enzyme was found to be 250 nM; on human Src enzyme, 820 nM; at human Yes1 enzyme, 2 nM.
On to `Cc1cc(Oc2ccc(F)cc2)ncc1-n1ncc(C(=O)c2cc3cc(F)c(NS(=O)(=O)CCCF)cc3[nH]2)c1N` [Example 4-2-027, N-[2-[5-amino-1-[6-(4-fluorophenoxy)-4-methylpyridin-3-yl]pyrazole-4-carbonyl]-5-fluoro-1H-indol-6-yl]-3-fluoropropane-1-sulfonamide], for which the IC50 at human Lck enzyme (setting [1]) was 30 nM; at human Src enzyme (setting [1]) it was 95 nM; on human Yes1 enzyme (setting [1]) it was 10 nM.
On the same counts, the results for `Cc1cc2cc(C(=O)c3cnn(-c4cnc(Oc5ccccc5F)cc4C)c3N)[nH]c2cc1NS(=O)(=O)c1ccc2ccccc2c1` [Example 5-1-466, N-[2-[5-amino-1-[6-(2-fluorophenoxy)-4-methylpyridin-3-yl]pyrazole-4-carbonyl]-5-methyl-1H-indol-6-yl]naphthalene-2-sulfonamide] are 520 nM, 4400 nM and 28 nM.
For the compound `CS(=O)(=O)Nc1cc2[nH]c(C(=O)c3cnn(-c4ccc(Oc5cccc(F)c5F)cc4Cl)c3N)cc2cc1F` [Example 5-1-016, N-[2-[5-amino-1-[2-chloro-4-(2,3-difluorophenoxy)phenyl]pyrazole-4-carbonyl]-5-fluoro-1H-indol-6-yl]methanesulfonamide], the results for the IC50 at human Lck enzyme, at human Src enzyme and at human Yes1 enzyme were 25 nM, 93 nM and 0.72 nM, respectively.
Turning to `Cc1cc(Oc2cccc(F)c2F)cc(F)c1-n1ncc(C(=O)c2cc3cc(F)c(NS(=O)(=O)C4CC4)cc3[nH]2)c1N` [Example 4-7-006, N-[2-[5-amino-1-[4-(2,3-difluorophenoxy)-2-fluoro-6-methylphenyl]pyrazole-4-carbonyl]-5-fluoro-1H-indol-6-yl]cyclopropanesulfonamide], the IC50 at human Lck enzyme (setting [1]) amounted to 160 nM; on human Src enzyme (setting [1]), 380 nM; on human Yes1 enzyme (setting [1]), 7 nM.
For the compound `Cc1cc(-n2ncc(C(=O)c3cc4cc(N5CCOCC5)c(NS(C)(=O)=O)cc4[nH]3)c2N)ccc1Oc1ccccc1F` [Example 5-1-157, N-[2-[5-amino-1-[4-(2-fluorophenoxy)-3-methylphenyl]pyrazole-4-carbonyl]-5-morpholin-4-yl-1H-indol-6-yl] methanesulfonamide], the IC50 was 480 nM at human Lck enzyme, 1100 nM on human Src enzyme and 1.9 nM on human Yes1 enzyme.
With `COc1ccnc(S(=O)(=O)Nc2cc3[nH]c(C(=O)c4cnn(-c5cnc(Oc6ccccc6F)cc5C)c4N)cc3cc2F)c1` [Example 5-1-514, N-[2-[5-amino-1-[6-(2-fluorophenoxy)-4-methylpyridin-3-yl]pyrazole-4-carbonyl]-5-fluoro-1H-indol-6-yl]-4-methoxypyridine-2-sulfonamide], the IC50 worked out at 140 nM on human Lck enzyme (setting [1]), 760 nM on human Src enzyme (setting [1]) and 3.3 nM at human Yes1 enzyme (setting [1]).
`Cc1cc2cc(C(=O)c3cnn(-c4cnc(Oc5cccc(Cl)c5)cc4C)c3N)[nH]c2cc1N1CCCS1(=O)=O` [Example 4-2-118, [5-amino-1-[6-(3-chlorophenoxy)-4-methylpyridin-3-yl]pyrazol-4-yl]-[6-(1,1-dioxo-1,2-thiazolidin-2-yl)-5-methyl-1H-indol-2-yl]methanone]: the IC50 on human Lck enzyme (setting [1]) was determined as 35 nM; at human Src enzyme (setting [1]) it was 110 nM; on human Yes1 enzyme (setting [1]) it was 5.7 nM.
On to `Cc1cc(Oc2c(F)cccc2F)ncc1-n1ncc(C(=O)c2cc3cc(F)c(NS(=O)(=O)c4cccc(Cl)n4)cc3[nH]2)c1N` [Example 5-1-528, N-[2-[5-amino-1-[6-(2,6-difluorophenoxy)-4-methylpyridin-3-yl]pyrazole-4-carbonyl]-5-fluoro-1H-indol-6-yl]-6-chloropyridine-2-sulfonamide], for which the IC50 came out at 230 nM at human Lck enzyme (setting [1]), 750 nM at human Src enzyme (setting [1]) and 8.8 nM at human Yes1 enzyme (setting [1]).
`Cc1cc(Oc2ccccc2F)ncc1-n1ncc(C(=O)c2cc3cc(F)c(NS(=O)(=O)c4c(F)cc(F)cc4F)cc3[nH]2)c1N` [Example 5-1-568, N-[2-[5-amino-1-[6-(2-fluorophenoxy)-4-methylpyridin-3-yl]pyrazole-4-carbonyl]-5-fluoro-1H-indol-6-yl]-2,4,6-trifluorobenzenesulfonamide]: the IC50 was 750 nM at human Lck enzyme (setting [1]), 1300 nM on human Src enzyme (setting [1]) and 17 nM on human Yes1 enzyme (setting [1]).
In the case of `Cc1cc(Oc2cccc(Cl)c2)cc(F)c1-n1ncc(C(=O)c2cc3cc(F)c(NS(=O)(=O)C4CC4)cc3[nH]2)c1N` [Example 4-7-012, N-[2-[5-amino-1-[4-(3-chlorophenoxy)-2-fluoro-6-methylphenyl]pyrazole-4-carbonyl]-5-fluoro-1H-indol-6-yl]cyclopropanesulfonamide], the IC50 at human Lck enzyme (setting [1]) stood at 160 nM; on human Src enzyme (setting [1]), 330 nM; at human Yes1 enzyme (setting [1]) it was 14 nM.
On the same counts, the results for `Cc1cc(Oc2ccccc2F)ncc1-n1ncc(C(=O)c2cc3cc(Cl)c(NS(C)(=O)=O)cc3[nH]2)c1N` [Example 4-2-085, N-[2-[5-amino-1-[6-(2-fluorophenoxy)-4-methylpyridin-3-yl]pyrazole-4-carbonyl]-5-chloro-1H-indol-6-yl]methanesulfonamide] are 7.6 nM, 51 nM and 0.81 nM.
Regarding `Cc1cc(Oc2cccc(F)c2F)cc(F)c1-n1ncc(C(=O)c2cc3cc(F)c(N)cc3[nH]2)c1N` [Example 4-3-001, {5-amino-1-[4-(2,3-difluorophenoxy)-2-fluoro-6-methylphenyl]pyrazol-4-yl}-(6-amino-5-fluoro-1H-indol-2-yl)methanone], the IC50 at human Lck enzyme (setting [1]) came to 24 nM; on human Src enzyme (setting [1]) it was 92 nM; on human Yes1 enzyme (setting [1]) it was 4.3 nM.
In the case of `Cc1cc(-n2ncc(C(=O)c3cc4cc(OC5CCN(C(C)C)CC5)c(Br)cc4[nH]3)c2N)ccc1Oc1cccc(F)c1` [Example 5-1-210, [5-amino-1-[4-(3-fluorophenoxy)-3-methylphenyl]pyrazol-4-yl]-[6-bromo-5-(1-propan-2-ylpiperidin-4-yl)oxy-1H-indol-2-yl] methanone], the IC50 at human Lck enzyme was found to be 120 nM; on human Src enzyme, 510 nM; on human Yes1 enzyme, 6.5 nM.
Regarding `Cc1cc(Oc2ccccc2F)ccc1-n1ncc(C(=O)c2cc3cc(C4CCN(C(C)C)CC4)c(F)cc3[nH]2)c1N` [Example 4-2-001, [5-amino-1-[4-(2-fluorophenoxy)-2-methylphenyl]pyrazol-4-yl]-[6-fluoro-5-(1-propan-2-ylpiperidin-4-yl)-1H-indol-2-yl]methanone], the IC50 was determined as 3.1 nM on human Lck enzyme (setting [1]), 4.1 nM at human Src enzyme (setting [1]) and 1 nM at human Yes1 enzyme (setting [1]).
On the same counts, the results for `Cc1cc(Oc2ccccc2F)ccc1-n1ncc(C(=O)c2cc3cc(OCC(F)F)c(N4CCN(S(C)(=O)=O)CC4)cc3[nH]2)c1N` [Example 4-23-005, [5-amino-1-[4-(2-fluorophenoxy)-2-methylphenyl]pyrazol-4-yl]-[5-(2,2-difluoroethoxy)-6-(4-methylsulfonylpiperazin-1-yl)-1H-indol-2-yl]methanone] are 8.2 nM, 16 nM and 1.7 nM.
For `Cc1cc2cc(C(=O)c3cnn(-c4ccc(Oc5ccccc5F)c(F)c4F)c3N)[nH]c2cc1NS(C)(=O)=O` [Example 5-1-214, N-[2-[5-amino-1-[2,3-difluoro-4-(2-fluorophenoxy)phenyl]pyrazole-4-carbonyl]-5-methyl-1H-indol-6-yl]methanesulfonamide], the results for the IC50 at human Lck enzyme, at human Src enzyme and at human Yes1 enzyme were 11 nM, 52 nM and 0.99 nM, respectively.
In the case of `Cc1cc(Oc2ccccc2F)ccc1-n1ncc(C(=O)c2cc3cc(OCCN4CCOCC4)c(NS(C)(=O)=O)cc3[nH]2)c1N` [Example 4-24-034, N-[2-[5-amino-1-[4-(2-fluorophenoxy)-2-methylphenyl]pyrazole-4-carbonyl]-5-(2-morpholin-4-ylethoxy)-1H-indol-6-yl]methanesulfonamide], the IC50 amounted to 4.7 nM on human Lck enzyme (setting [1]), 8.1 nM on human Src enzyme (setting [1]) and 0.39 nM on human Yes1 enzyme (setting [1]).
